Reference: PubChem BioAssay AID1117361 (Southern Research Institute, 2015)

target: Protein Tat (Human immunodeficiency virus type 1 group M subtype B (isolate HXB2)) (UniProt P04608); assay: HIV-1 Tat–TAR interaction blockers – biochemical, fluorescence polarization, FAM-labeled TAR RNA, counter-screen for Vif-APOBEC3G degradation inhibitor project, dose response (AID 1117361); settings: Tat-TAR RNA binding
Sequence (P04608 whole entry, looked up): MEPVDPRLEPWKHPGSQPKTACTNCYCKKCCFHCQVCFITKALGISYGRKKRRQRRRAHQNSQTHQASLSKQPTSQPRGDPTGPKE

SMILES	IC50 [µM]
CCN(CC)S(=O)(=O)c1cccc(C(=O)N/N=C/c2ccc(O)c(O)c2O)c1	92.7
O=[N+]([O-])c1cc(-c2ccc(/C=N/c3nc4ccccn4c3-c3ccco3)o2)ccc1Cl	28.7
c1coc(-c2nc3ccccc3nc2-c2ccco2)c1	6.44
CCOC(=O)C1CCN(C(c2cccs2)c2sc3nc(C)nn3c2O)CC1 (configuration not stated)	1.96
CC1=C(C(=O)Nc2ccccc2)C(c2ccc(C)o2)n2c(s/c(=C\c3ccco3)c2=O)=N1 (configuration not stated)	5.9
CCOC(=O)C1=C(N)n2c(s/c(=C\c3ccco3)c2=O)=C(C(=O)OC(C)C)C1c1ccco1 (configuration not stated)	3.45
COCCn1nnnc1C(c1cc2cc(OC)c(OC)cc2[nH]c1=O)N1CCN(c2ccc(O)cc2)CC1 (configuration not stated)	94.3
Cn1cccc1/C=C1\CCC/C(=C\c2cccn2C)C1=O	17
Cc1cc2ccccc2n1CCNC(=O)C1CCCCC1	23.5
COc1cc(/C=C/C=C2/CC/C(=C/C=C/c3ccc(O)c(OC)c3)C2=O)ccc1O	44.8
O=C(O)C1Nc2c(Cl)cc(Cl)cc2C2C=CCC12 (configuration not stated)	94.4
CNc1ccc(Br)cc(C(=O)/C=C/c2cccc(OC)c2OC)c1=O	8
Cc1ccc(-n2nc(C)c(C3C(C#N)=C(N)Oc4c3c(=O)oc3ccccc43)c2Cl)cc1 (configuration not stated)	25.2
Cc1ccc(N2C(=O)/C(=C\c3ccco3)SC2=S)cc1	36
Cc1ccc(C(=O)C2=C(O)C(=O)N(c3ncccn3)C2c2ccc(F)cc2)o1 (configuration not stated)	82.7
COc1ccc2c(c1OC)C(=O)OC2CC(=O)c1ccc(O)c(O)c1 (configuration not stated)	80.5
Cc1cccc(-n2nc3c(c2NC(=O)c2ccc(Br)o2)CSC3)c1	85.9
CCCCC1=CC2=C(c3ccco3)C(=O)C(C)(OC(=O)c3ccc(OC)cc3)C(=O)C2=CN1CCCCO (configuration not stated)	29.3
Cc1cc(O)c(-c2cc(O)c(C)cc2O)cc1O	89.7
O=C(Nc1cccc(C(F)(F)F)c1)c1ccc2nc(-c3ccco3)c(-c3ccco3)nc2c1	6.07
CN(C)c1ccc2cc(S(=O)(=O)O)cc(O)c2c1	90
O=C(Nc1ccn(-c2ccccc2)n1)c1ccccc1Br	30.2
O=C1/C(=C\c2ccco2)SC(=S)N1c1ccccc1	9.64
Cc1ccccc1NC(=O)CSc1nnc(-c2ccco2)c(-c2ccco2)n1	2.73

SMILES	IC50 [µM]
CCOC(=O)c1ccc2c(c1)C1C=CCC1C(C(=O)O)N2 (configuration not stated)	11
CC1(C)Cc2nc3sc(C(=O)O)c(N)c3cc2CS1	28.3
O=C(Nc1nc(-c2ccco2)c(-c2ccco2)s1)C1CCC1	2.65
CN1CCc2cccc3c2[C@H]1Cc1ccc(O)c(O)c1-3	19.1
O=C(O)C(Cc1ccccc1)N1C(=O)/C(=C/C=C/c2ccco2)SC1=S (configuration not stated)	1.26
Cc1cccc(-n2c(Cc3cc(=O)[nH]c(=O)[nH]3)nnc2SC(C)C)c1	28.2
O=C(C1CCCN1S(=O)(=O)c1cccc2cccnc12)N1CCN(c2ccccc2)CC1 (configuration not stated)	46.8
COc1ccc2[nH]c3c4c(ccc3c2c1)C(=O)C=CC4=O	24.7
Cc1cc(C)nc(N/N=C/C2=C(N3CCOCC3)C(=C\c3ccc(Cl)cc3)/CC2)n1	72.4
Brc1c(CSc2nnc(-c3ccco3)o2)nc2ccccn12	23.9
Oc1ccc2c(c1)C1CCCC1(N1CCOCC1)O2 (configuration not stated)	23.1
CCC(=Nc1ccc(N)cc1)C1=C(O)C(C(=O)OC)C(C)(C)CC1=O (configuration not stated)	5.48
CCc1ccc(NC(=O)N(CCN2CCOCC2)Cc2ccc3c(c2)CCCN3CC)cc1	74.5
Nc1cccc2c(O)cc(S(=O)(=O)O)cc12	19.3
O=C(Cc1csc(N2CCOCC2)n1)N/N=C/c1ccc(O)c(O)c1O	16.7
CN(C)[C@@H]1C(=O)C(C(=O)NCN2CCCC2)=C(O)[C@@]2(O)C(=O)C3=C(O)c4c(O)cccc4[C@@](C)(O)C3CC12 (some centres not stated)	2.46
CN1CCc2cccc3c2[C@@H]1Cc1ccc(O)c(O)c1-3	9.08
Cc1ccc(/C=C2\SC(=S)N(c3cccnc3)C2=O)o1	5.44
O=C1NC(=O)N(c2ccccc2)C(=O)/C1=C\c1ccc([N+](=O)[O-])s1	10.7
O=C1/C(=C/C=C/c2ccco2)SC(=S)N1c1ccc(O)cc1	19.1
CC(=O)NN1C(=O)/C(=C/c2ccc(Br)o2)SC1=S	36.2
CCN(CC)C(=O)c1ccc(CS(=O)(=O)c2ccc(OC)cc2)o1	2.35
Cc1ccc2cc(C(c3nnnn3Cc3ccccc3)N3CCc4ccccc43)c(=O)[nH]c2c1 (configuration not stated)	46.4
COC(=O)CCCC(=O)Nc1c(F)c(F)c(F)c(F)c1F	78.2

SMILES	IC50 [µM]
O=[N+]([O-])c1cc2ccccc2c(O)c1O	56.8
Cc1sc2ncnc(SCc3ccco3)c2c1C	17.6
O=C(N/N=C/C(Br)=C/c1ccccc1)c1cc(-c2ccco2)[nH]n1	8.53
COc1cccc(NC(=O)CSc2nnc(-c3ccco3)c(-c3ccco3)n2)c1	69.3
CC1(C)OC(=O)C(=C2CCCN2)C(=O)O1	0.882
CCOc1cccc(=O)c2c(C)n(C)c(C)c12	55.2
O=C1c2ccccc2C(=O)N1/N=C/c1ccc(O)c(O)c1O	14.7
C(=C\c1ccco1)/C=N/n1cnnc1	10.4
CCc1cc(=O)oc2cc(C)c(CN3CCCC3)c(O)c12	5.84
CCN1C(=O)/C(=C\c2ccc([N+](=O)[O-])s2)C(=O)NC1=S	4.07
O=c1[nH]nc(CNc2ccc(O)cc2)c2ccccc12	33.7
O=C(Nc1ccccc1N1CCCC1)c1ccc(Br)o1	59.6
c1coc(-c2nc(-c3ccco3)c(-c3ccco3)nc2-c2ccco2)c1	2.19
N#C/C(=C/c1ccc(Br)o1)C(N)=S	16
O=C1NC(=Nc2ccc(O)cc2)S/C1=C\C=C\c1ccco1	18.3
CCCCCC#CCC#CCC#CCC#CCCCC(=O)O	2.38
CC(C)NC[C@@H](O)c1ccc(O)c(O)c1	5.21
CC1CCCCC1NC(=O)COC(=O)c1c2c(nc3ccccc13)/C(=C/c1ccco1)CC2 (configuration not stated)	7.58
Oc1ccc(NCc2ccccc2OCc2ccccc2)cc1	51.6
O=C(CN1CCN(S(=O)(=O)c2ccc(Cl)cc2)CC1)Nc1ccc2c(c1)OCCO2	1.31
CC(=O)NN1C(=O)/C(=C\c2ccc(Br)o2)SC1=S	4.82
N#C/C(=C/c1ccc(N2CCCCCC2)o1)c1cccc(F)c1	98.4
Cc1ccccc1NC(=O)c1c(C)[nH]c(=S)c(C#N)c1-c1ccco1	8.91
Nc1ncnc2oc(-c3ccco3)c(-c3ccco3)c12	3.36

SMILES	IC50 [µM]
O=C1NC(=S)SC1=C1CCCC1	6.59
CCOc1cccc(=O)c2c(C)n(Cc3ccco3)c(C)c12	2.95
O=C1NC(c2ccc(Br)cc2)=N/C1=C/c1ccco1	6.78
CCOC(=O)c1sc2nc(CC(=O)OC)nc(NCc3ccco3)c2c1C	16.1
CC1(C)N([O-])c2cc([N+](=O)[O-])ccc2[N+]1=O	61.3
O=C(O)c1ccc2c(c1)[C@@H]1C=CC[C@@H]1[C@H](c1ccccn1)N2	7.1
O=C1S/C(=C\C=C\c2ccco2)C(=O)N1c1ccc(O)cc1	2
O=C1/C(=C\c2ccco2)NC(=S)N1c1ccccc1	16.1
O=C(COC(=O)c1ccccc1)Nc1ncc([N+](=O)[O-])s1	20.5
COc1cccc(-n2c(Cc3cc(=O)[nH]c(=O)[nH]3)nnc2SCC(=O)NC2CCCC2)c1	10.1
CC1=CC(C)(C)Nc2ccc(OC(=O)CN3C(=O)c4cccc5cccc(c45)C3=O)cc21	15.3
O=S(=O)(Nc1nccs1)c1ccc(Nc2nnc(-c3ccccc3)c3ccccc23)cc1	47.7
Cc1oc(C)c2c(=O)ccc3c(c12)OC(N)=C(C#N)C3c1ccccc1 (configuration not stated)	81.9
CCOC(=O)N1CC=C2C(C#N)=C(N)C(C#N)(C#N)[C@H](c3cccs3)[C@H]2C1	15.3
C[n+]1cccc2cccc([O-])c21	13.7
O=C(O)CCc1ccc(-c2cccs2)n1-c1ccc(C(=O)O)cc1	45.6
O=C(O)CCCCC1CCSS1 (configuration not stated)	5.89
O=C1CC(/C=C/c2ccco2)=Nc2ccccc2N1	6.84
COCCNC(=O)Nc1ccc2nc(-c3ccco3)c(-c3ccco3)nc2c1	2.17
O=c1oc2c(O)c(O)cc3c(=O)oc4c(O)c(O)cc1c4c23	1.67
O=C1CC(Nc2ccc(N3CCOCC3)cc2)C(=O)N1C1CCCCC1 (configuration not stated)	11.6
COc1ccccc1-n1c(-c2cc(-c3ccco3)[nH]n2)n[nH]c1=S	5.36
CCOc1cccc(=O)c2c(C)n(CC(=O)c3ccccc3)c(C)c12	18.6
O=C(NCCCO)Nc1ccc2nc(-c3ccco3)c(-c3ccco3)nc2c1	2.01

SMILES	IC50 [µM]
CC(=O)c1ccc2c(c1)C1C=CCC1C(c1ccncc1)N2 (configuration not stated)	36.6
O/N=C1\CCC\C1=C/c1ccco1	27.2
Cc1cc(C(=O)O)ccc1-n1c(C)ccc1C	5.78
c1cn2cc(CSC3CCCCC3)nc2s1	63.8
CCN(CC)c1ccc(/C=N/n2c(C)cc(C)cc2=O)cc1	5.27
O=C(/C=C/c1cccs1)Nc1ccc(Br)cn1	31.4
COc1ccc2nc(-c3ccco3)c(-c3ccco3)nc2c1	3.13
CCCC(=Nc1ccc(N)cc1)C1=C(O)C(C(=O)OC)C(C)(C)CC1=O (configuration not stated)	6.88
Oc1ccc(NCc2cccc(OCc3ccc(F)cc3)c2)cc1	68.7
COC(=O)C1=COC(C)C2CN3CCc4c([nH]c5ccccc45)C3CC12 (configuration not stated)	7.63
CSc1nnc(-c2ccco2)c(-c2ccco2)n1	6.07
Clc1ccc(-c2cn3cccnc3n2)cc1Cl	90.9
CN1C(=O)/C(=C/C=C/c2ccco2)C(=O)NC1=S	11.2
Nc1nc(-c2ccco2)c(-c2ccco2)s1	2.39
O=C(O)c1cccc2cccc(-c3c4ccc(=O)c(O)c-4oc4c(O)c(O)ccc34)c12	3.38
CN1CCc2c(sc3c2c(NCc2ccco2)nc2nnnn23)C1	79.8
Cc1cc2c(c(=O)o1)C(c1ccc([N+](=O)[O-])o1)C(C#N)=C(N)O2 (configuration not stated)	9.96
O=C1c2sc3nc4n(c(=O)c3c2CCC1Br)CCCCC4 (configuration not stated)	4.82
CCCSC1=N/C(=C\c2ccc([N+](=O)[O-])o2)C(=O)S1	7.37
Cc1cc(/C=C2\C(=O)NC(=O)N(c3cccc(F)c3)C2=O)c(C)n1-c1cc(C(=O)O)cc(C(=O)O)c1	2.95
O=C(O)c1cc2cccc(S(=O)(=O)N3CCOCC3)c2cc1O	80.3
